From paper PMC11079024, “Identification of a family of species-selective complex I inhibitors as potential anthelmintics” (Nature Communications, 2024)
Where “and” joins values, the source holds several entries; their conditions need not be identical. Identical values can stand only once. Like-named read-outs stand apart in the source and are kept apart here.

Molecular target: C. elegans (N2) complex I (NADH:ubiquinone oxidoreductase) (Caenorhabditis elegans, UniProt P24887+Q93873+Q94360)
Assay: biochemical
Type: biochemical
In short: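 Mitochondria, 0.2 mg/mL protein, freeze-thawed three times, assayed in 25 mM KPi pH 7.5 with BSA, 80 μM NADH, 60 μM decylubiquinone, 160 μM DCIP, antimycin A and KCN. Rate from initial linear slope of A600 over 15 min. % of solvent control.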

[1] = C. elegans, Mean of replicates, read-out: Complex I activity, dose-response data
[2] = C. elegans, individual replicates (Rep), read-out: Complex I activity, dose-response data

C. elegans (N2) complex I (NADH:ubiquinone oxidoreductase), sequence (Q94360 17-199): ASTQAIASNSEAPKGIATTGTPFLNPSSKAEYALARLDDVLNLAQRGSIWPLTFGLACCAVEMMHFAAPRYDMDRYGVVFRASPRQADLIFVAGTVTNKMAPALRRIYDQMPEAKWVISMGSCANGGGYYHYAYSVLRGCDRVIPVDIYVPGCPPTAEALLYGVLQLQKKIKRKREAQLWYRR
C. elegans (N2) complex I (NADH:ubiquinone oxidoreductase), sequence (P24887 whole entry): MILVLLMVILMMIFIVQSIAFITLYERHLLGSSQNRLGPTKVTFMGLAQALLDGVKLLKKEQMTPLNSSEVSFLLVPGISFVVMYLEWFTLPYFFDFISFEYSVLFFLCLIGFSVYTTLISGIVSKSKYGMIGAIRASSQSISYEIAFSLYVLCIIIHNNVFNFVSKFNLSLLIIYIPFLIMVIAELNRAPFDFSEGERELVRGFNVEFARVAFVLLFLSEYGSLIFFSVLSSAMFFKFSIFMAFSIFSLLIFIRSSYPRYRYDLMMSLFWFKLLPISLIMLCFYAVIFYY
C. elegans (N2) complex I (NADH:ubiquinone oxidoreductase), sequence (Q93873 31-482): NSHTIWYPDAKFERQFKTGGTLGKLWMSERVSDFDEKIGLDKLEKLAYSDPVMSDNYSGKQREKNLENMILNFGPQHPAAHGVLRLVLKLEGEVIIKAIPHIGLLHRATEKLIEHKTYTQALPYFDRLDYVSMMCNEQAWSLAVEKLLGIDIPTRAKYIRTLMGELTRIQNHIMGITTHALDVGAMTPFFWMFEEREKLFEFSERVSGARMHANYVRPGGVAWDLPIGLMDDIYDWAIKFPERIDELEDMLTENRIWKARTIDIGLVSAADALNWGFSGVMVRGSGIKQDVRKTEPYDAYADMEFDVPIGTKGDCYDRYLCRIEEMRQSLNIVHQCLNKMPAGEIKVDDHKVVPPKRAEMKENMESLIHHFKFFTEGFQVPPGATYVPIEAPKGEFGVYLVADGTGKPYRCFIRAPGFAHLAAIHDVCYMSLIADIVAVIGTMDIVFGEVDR

Compound: COc1cc2c(cc1OC)C(C(C)c1ccc(CC(C)C)cc1)=NCC2 (stereo not drawn) [NPD10504]
- remaining activity at 3 µM (3 µM, wild-type C. elegans mitochondria, single replicate, read-out: percent (%) in vitro complex I activity relative to solvent control): 61.4%
- remaining activity at 15 µM (wild-type C. elegans mitochondria, mean of replicates, read-out: percent (%) in vitro complex I activity relative to solvent control): 13.5%
- remaining activity at 15 µM (wild-type C. elegans mitochondria, single replicate, read-out: percent (%) in vitro complex I activity relative to solvent control): 12.3%
- remaining activity at 37.5 µM (37.5 µM, wild-type C. elegans mitochondria, mean of replicates, read-out: percent (%) in vitro complex I activity relative to solvent control): 12.4%
- remaining activity at 75 µM (75 µM, wild-type C. elegans mitochondria, mean of replicates, read-out: percent (%) in vitro complex I activity relative to solvent control): 12.3%
- activity at 100 µM (100 µM compound, relative to solvent control, mean (SEM), read-out: % Activity Complex I): 4.22%
- Percent in vitro activity, Complex I (single replicate Rep1-Rep4) (100 μM of NPD compound, C. elegans mitochondria, individual biological replicates, 100 µM): 0.000% and 7.255% and 9.637%
- activity at 100 µM (100 μM of NPD compound, C. elegans mitochondria, mean of four biological replicates, read-out: Percent in vitro activity, Complex I (Mean)): 4.22%
- activity at 0.0001 µM [1]: 100%
- activity at 0.0001 µM [2]: 100%
- activity at 0.0005 µM (C. elegans, dose 0.0005 µM, Mean of replicates, read-out: Complex I activity, dose-response data): 95.6%
- Complex I activity, dose-response data (C. elegans, dose 0.0005 µM, individual replicates (Rep)): 99.245 and 96.022 and 93.047
- activity at 0.0005 µM (C. elegans, dose 0.0005 µM, individual replicates (Rep), read-out: Complex I activity, dose-response data): 94%
- activity at 0.001 µM (C. elegans, dose 0.001 µM, Mean of replicates, read-out: Complex I activity, dose-response data): 95.6%
- Complex I activity, dose-response data (C. elegans, dose 0.001 µM, individual replicates (Rep)): 101.885 and 91.805 and 98.125
- activity at 0.001 µM (C. elegans, dose 0.001 µM, individual replicates (Rep), read-out: Complex I activity, dose-response data): 90.6%
- activity at 0.0025 µM (C. elegans, dose 0.0025 µM, Mean of replicates, read-out: Complex I activity, dose-response data): 95.4%
- Complex I activity, dose-response data (C. elegans, dose 0.0025 µM, individual replicates (Rep)): 105.286 and 89.091 and 95.022
- activity at 0.0025 µM (C. elegans, dose 0.0025 µM, individual replicates (Rep), read-out: Complex I activity, dose-response data): 92.2%
- activity at 0.005 µM (C. elegans, dose 0.005 µM, Mean of replicates, read-out: Complex I activity, dose-response data): 93.5%
- Complex I activity, dose-response data (C. elegans, dose 0.005 µM, individual replicates (Rep)): 100.896 and 97.608 and 92.236
- activity at 0.005 µM (C. elegans, dose 0.005 µM, individual replicates (Rep), read-out: Complex I activity, dose-response data): 83.3%
- activity at 0.013 µM (C. elegans, dose 0.013 µM, Mean of replicates, read-out: Complex I activity, dose-response data): 97.4%
- Complex I activity, dose-response data (C. elegans, dose 0.013 µM, individual replicates (Rep)): 86.744 and 107.737 and 98.643 and 96.409
- activity at 0.025 µM (C. elegans, dose 0.025 µM, Mean of replicates, read-out: Complex I activity, dose-response data): 99.6%
- Complex I activity, dose-response data (C. elegans, dose 0.025 µM, individual replicates (Rep)): 81.492 and 104.774 and 100.771 and 111.289
- activity at 0.063 µM (C. elegans, dose 0.063 µM, Mean of replicates, read-out: Complex I activity, dose-response data): 97%
- Complex I activity, dose-response data (C. elegans, dose 0.063 µM, individual replicates (Rep)): 104.194 and 94.273 and 98.067
- activity at 0.063 µM (C. elegans, dose 0.063 µM, individual replicates (Rep), read-out: Complex I activity, dose-response data): 91.6%
- activity at 0.125 µM (C. elegans, dose 0.125 µM, Mean of replicates, read-out: Complex I activity, dose-response data): 92.7%
- Complex I activity, dose-response data (C. elegans, dose 0.125 µM, individual replicates (Rep)): 100.304 and 94.360 and 87.363
- activity at 0.125 µM (C. elegans, dose 0.125 µM, individual replicates (Rep), read-out: Complex I activity, dose-response data): 88.8%
- activity at 0.313 µM (C. elegans, dose 0.313 µM, Mean of replicates, read-out: Complex I activity, dose-response data): 91.5%
- Complex I activity, dose-response data (C. elegans, dose 0.313 µM, individual replicates (Rep)): 102.145 and 93.069 and 82.299
- activity at 0.313 µM (C. elegans, dose 0.313 µM, individual replicates (Rep), read-out: Complex I activity, dose-response data): 88.6%
- activity at 0.625 µM [1]: 100%
- activity at 0.625 µM [2]: 100%
- activity at 1.5 µM (C. elegans, dose 1.5 µM, Mean of replicates, read-out: Complex I activity, dose-response data): 78.6%
- Complex I activity, dose-response data (C. elegans, dose 1.5 µM, individual replicates (Rep)): 84.112 and 75.755 and 78.095
- activity at 1.5 µM (C. elegans, dose 1.5 µM, individual replicates (Rep), read-out: Complex I activity, dose-response data): 76.6%
- activity at 3 µM (C. elegans, dose 3 µM, Mean of replicates, read-out: Complex I activity, dose-response data): 58.9%
- Complex I activity, dose-response data (C. elegans, dose 3 µM, individual replicates (Rep)): 63.002 and 56.869 and 54.489
- activity at 3 µM (C. elegans, dose 3 µM, individual replicates (Rep), read-out: Complex I activity, dose-response data): 61.4%
- activity at 15 µM (C. elegans, dose 15 µM, Mean of replicates, read-out: Complex I activity, dose-response data): 13.5%
- Complex I activity, dose-response data (C. elegans, dose 15 µM, individual replicates (Rep)): 13.403 and 18.209 and 10.130
- activity at 15 µM (C. elegans, dose 15 µM, individual replicates (Rep), read-out: Complex I activity, dose-response data): 12.3%
- activity at 37.5 µM (C. elegans, dose 37.5 µM, Mean of replicates, read-out: Complex I activity, dose-response data): 12.4%
- Complex I activity, dose-response data (C. elegans, dose 37.5 µM, individual replicates (Rep)): 3.265 and 5.642 and 23.594 and 17.069
- activity at 75 µM (C. elegans, dose 75 µM, Mean of replicates, read-out: Complex I activity, dose-response data): 12.3%
- Complex I activity, dose-response data (C. elegans, dose 75 µM, individual replicates (Rep)): 2.370 and 3.939 and 26.690 and 16.321
- IC50 (wild-type (N2) mitochondria, read-out: C. elegans Complex I IC50): 3.29 µM and 3.3 µM
